According to patent US10912780B2, “Heterocyclic compounds useful as anti-bacterial agents and method for production thereof” (Bugworks Research, Inc., priority 2017, dated 2021):
≈ marks a conversion by molar mass, not a printed value. Where “and” joins values, the source holds several entries; their conditions need not be identical. Identical values can stand only once.

Tests used:
[1] = system: K. pneumoniae [ATCC13883]; assay: Neutropenic thigh infection model in rat; type: in vivo; conditions: for Log 10 CFU/g thigh: individual animals
Description: Example 15 was tested in rat thigh infection model following intravenous infusion of compound at doses of 100 mg/kg once, 30 mg/kg once daily over a period of 1 hr to assess its efficacy. This study was performed following all ethical practices as laid down in the guidelines for animal care (Registration number No. 1852/PO/Rc/S/16/CPCSEA). The study was approved by the Institutional Animals Ethics Committee (IAEC) of the test facility. The formulation used was 10% of L-ascorbic acid in fresh MilliQ water (w/v) with pH adjusted to ˜4.0 with 1N NaOH. On Day −4 (4 days prior to the desired date of infection), each rat was dosed with a single intra-peritoneal injection of cyclophosphamide equivalent to 150 mg/kg, and returned to its cage. On Day−1 (a day prior to infection) each rat received a dose equivalent to 100 mg/kg of Cyclophosphamide. This procedure ensured that animals will be neutropenic on day 0. […] The inoculum was serially diluted ten-fold in sterile CSDB broth and 0.05 ml of six dilutions were plated onto CSDA agar plates to determine the viable count (CFU/ml) of inoculum. All animals were divided into different groups as specified in the experimental design for each microorganism. All infections were conducted in a biological safety cabinet, with appropriate personnel protection. […] A gentle shaking/mixing of inoculum between two animals was followed for uniform distribution.
Two hours post infection, animals in groups 4, 5 and 6 were administered intravenously with example 15, as a constant rate infusion (duration of infusion 1 h), under Ketamine 60 mg/kg IP+Xylazine 10 mg/kg IP anesthesia, at a dose volume of 10 ml/kg, at the rate of 0.16 ml/min. The dose levels of Example 15 were 10, 30 and 100 mg/kg. […] The total duration of the study was 10 h.
Animals were sacrificed 10 hr post infection and thigh tissues were harvested to enumerate the bacterial CFU count. Thigh muscles were aseptically excised, weighed, and placed into 1 ml of sterile CSDB broth, and homogenized (Omni Tip (220 V hand held)). Serial ten-fold dilutions of the thigh homogenates were prepared in sterile lactose broth and 0.05 mL of four dilutions for each thigh was plated onto CSDA agar plates. Bacterial colonies were enumerated following overnight incubation at […]. Bacterial densities were estimated as Log 10 CFU/gram thigh. The Mean±SD Log 10 CFU/gram thigh was estimated in each group. Significant differences between group means and control will be analyzed by One way ANOVA, followed by a Dunnett's multiple comparison test, using Graphpad Prism at 95% confidence levels. A P value of <0.05 was considered as significant.

[2] = system: K. pneumoniae clinical strains; assay: Antibacterial susceptibility studies (MIC50 and MIC90) with clinical strains, CLSI guidelines; type: cell-based
[3] = system: P. aeruginosa clinical strains; assay: as above; type: cell-based
[4] = Stability of IV formulation at room temperature; type: physicochemical; conditions: IV formulation in 10% L-ascorbic acid, pH~4
Description: Procedure: Weighed appropriate amount of the Example 15 to be tested and dissolved in 1 ml of the 10% ascorbic acid solution. (Vortex for a few seconds if the compound doesn't dissolve instantly). Sonicated the compound solution at room temperature for 5 minutes using a bath sonicator to obtain a visually clear solution. The above prepared solution was pH adjusted to pH˜4 with 1N NaOH solution (w/v) with sonication (final Formulation pH˜4).

[5] = system: E. cloacae clinical strains; assay: Antibacterial susceptibility studies (MIC50 and MIC90) with clinical strains, CLSI guidelines; type: cell-based
[6] = molecular target: E. coli DNA gyrase (Escherichia coli, UniProt P0AES4+P0AES6); assay: biochemical; conditions: supercoiling assay
[7] = system: E. coli clinical strains; assay: Antibacterial susceptibility studies (MIC50 and MIC90) with clinical strains, CLSI guidelines; type: cell-based
[8] = 10 mg/kg, i.v., 1 h infusion, neutropenic rat, 10 hr post infection
[9] = 30 mg/kg, i.v., 1 h infusion, neutropenic rat, 10 hr post infection
[10] = Enterobacter cloacae, E. cloacae clinical strains (88 strains)

Chain of E. coli DNA gyrase (P0AES4 whole entry, one chain of several): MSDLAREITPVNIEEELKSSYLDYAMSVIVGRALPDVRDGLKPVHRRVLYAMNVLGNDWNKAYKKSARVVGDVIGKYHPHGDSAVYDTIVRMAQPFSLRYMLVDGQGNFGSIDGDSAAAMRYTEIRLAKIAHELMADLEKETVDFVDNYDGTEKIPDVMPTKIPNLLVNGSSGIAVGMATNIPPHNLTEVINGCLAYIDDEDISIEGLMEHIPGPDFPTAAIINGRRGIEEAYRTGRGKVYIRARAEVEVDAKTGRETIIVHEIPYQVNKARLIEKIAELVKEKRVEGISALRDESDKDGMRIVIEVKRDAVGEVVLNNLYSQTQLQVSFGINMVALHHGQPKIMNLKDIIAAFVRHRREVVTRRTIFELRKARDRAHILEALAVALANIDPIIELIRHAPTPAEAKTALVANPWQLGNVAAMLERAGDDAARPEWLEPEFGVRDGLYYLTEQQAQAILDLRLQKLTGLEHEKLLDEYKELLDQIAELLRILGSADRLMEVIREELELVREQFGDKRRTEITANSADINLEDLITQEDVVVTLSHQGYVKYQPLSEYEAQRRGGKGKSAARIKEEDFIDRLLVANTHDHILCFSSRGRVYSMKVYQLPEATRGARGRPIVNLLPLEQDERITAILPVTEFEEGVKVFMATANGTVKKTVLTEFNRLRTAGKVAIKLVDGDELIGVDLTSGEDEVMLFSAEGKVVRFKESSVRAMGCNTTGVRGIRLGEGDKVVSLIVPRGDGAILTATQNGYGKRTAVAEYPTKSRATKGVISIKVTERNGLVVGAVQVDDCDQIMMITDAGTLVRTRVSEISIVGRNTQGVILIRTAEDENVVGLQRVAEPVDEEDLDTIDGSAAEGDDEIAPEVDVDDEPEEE

Question: With `Cn1c(=O)ccc2ccc(F)c(CCNC[C@H]3CN(c4cnc5c(n4)NC(=O)CO5)C(=O)O3)c21` [Example 15, (S)-6-(5-(((2-(7-fluoro-1-methyl-2-oxo-1,2-dihydroquinolin-8-yl)ethyl)amino)methyl)-2-oxooxazolidin-3-yl)-2H-pyrazino[2,3-b][1,4]oxazin-3(4H)-one] as the compound, how does the “MEAN ± SD (Log 10 CFU/g thigh)” value [1, 8] read?
Answer: 2.91 ± 0.24 Log 10 CFU/g thigh

Question: And the “MEAN ± SD (Log 10 CFU/g thigh)” value [1, 9]?
Answer: 2.22 ± 0.50 Log 10 CFU/g thigh

Question: What about the “Mean Log10CFU/g thigh reduction (wrt 2 h PI control: 4.72 Log10CFU/g thigh)” value [1, 9] of the same compound?
Answer: 2.50 Log10CFU/g thigh

Question: And the “Log 10 CFU/g thigh” value [1, 8]?
Answer: 3.18 Log 10 CFU/g thigh and 2.85 Log 10 CFU/g thigh and 2.71 Log 10 CFU/g thigh

Question: And the “Log 10 CFU/g thigh” value [1, 9]?
Answer: 1.92 Log 10 CFU/g thigh and 1.94 Log 10 CFU/g thigh and 2.8 Log 10 CFU/g thigh

Question: What about the “efficacy with respect to 2 h Post Infection (PI) control (in words)” value ([1]; rat thigh model, 10 and 30 mg/kg) of the same compound?
Answer: significant dose dependent efficacy

Question: And the “efficacy versus standard drug (in words)” value ([1]; rat thigh model, similar dose (10 mg/kg))?
Answer: comparable to standard drug ciprofloxacin

Question: And the MIC ATCC13883 ([2]; K. pneumoniae reference strain ATCC13883, no unit in this line)?
Answer: 0.03 µg/mL (≈ 0.064 µM)

Question: What about the MIC50 ([2]; Klebsiella pneumoniae) of the same compound?
Answer: 0.5 µg/mL (≈ 1.07 µM)

Question: What about the MIC90 ([2]; Klebsiella pneumoniae) of the same compound?
Answer: 1 µg/mL (≈ 2.13 µM)

Question: And the Minimum ([2]; lowest MIC among K. pneumoniae clinical strains (211 strains; Example 15: 176), no unit in this line)?
Answer: 0.06

Question: And the MIC ATCC27853 ([3]; P. aeruginosa reference strain ATCC27853, no unit in this line)?
Answer: 0.25 µg/mL (≈ 0.534 µM)

Question: What about the MIC50 ([3]; Pseudomonas aeruginosa) of the same compound?
Answer: 0.5 µg/mL (≈ 1.07 µM)

Question: What about the MIC90 ([3]; Pseudomonas aeruginosa) of the same compound?
Answer: 1 µg/mL (≈ 2.13 µM)

Question: What about the Minimum ([3]; lowest MIC among P. aeruginosa clinical strains (215 strains; Example 15: 176), no unit in this line) of the same compound?
Answer: 0.03

Question: And the “IV formulation stable at room temperature” value [4]?
Answer: more than 24 hours

Question: And the MIC50 [5, 10]?
Answer: 0.25 µg/mL (≈ 0.534 µM)

Question: And the MIC90 [5, 10]?
Answer: 1 µg/mL (≈ 2.13 µM)

Question: And the Minimum ([5]; lowest MIC among E. cloacae clinical strains (88 strains), no unit in this line)?
Answer: 0.03

Question: What about the IC50 [6] of the same compound?
Answer: 4.6 nM

Question: And the MIC ATCC25922 ([7]; E. coli reference strain ATCC25922, no unit in this line (MIC50/MIC90 lines: μg/ml))?
Answer: 0.06 µg/mL (≈ 0.128 µM)

Question: And the MIC50 ([7]; Escherichia coli)?
Answer: 0.06 µg/mL (≈ 0.128 µM)

Question: What about the MIC90 ([7]; Escherichia coli) of the same compound?
Answer: 0.25 µg/mL (≈ 0.534 µM)

Question: What about the Minimum ([7]; lowest MIC among E. coli clinical strains (201 strains; Example 15: 176), no unit in this line) of the same compound?
Answer: 0.03
